In ChEMBL document CHEMBL3826916, “Synthesis and potent antiprotozoal activity of mono/di amidino 2-anilinobenzimidazoles versus Plasmodium falciparum and Trypanosoma brucei rhodesiense” (Bioorg Med Chem, 2016):

What was measured:
L6 = assay: Cytotoxicity against rat L6 cells by alamar blue assay; assay type: cell-based
Plasmodium falciparum = assay: Antiplasmodial activity against chloroquine and pyrimethamine resistant Plasmodium falciparum K1 infected in human erythrocytes after 48 hrs by [3H]hypoxanthine incorporation assay; assay type: functional, organism-based
[1] = tested on: Trypanosoma brucei rhodesiense; assay: Antiparasitic activity against bloodstream forms of Trypanosoma brucei rhodesiense STIB 900 assessed as growth inhibition after 72 hrs by resazurin assay; assay type: functional, organism-based; settings: STIB 900, 72 h
[2] = Selectivity index, ratio of IC50 for rat L6 cells to IC50 for chloroquine and pyrimethamine resistant Plasmodium falciparum K1 infected in human erythrocytes; assay type: toxicity, cell-based; settings: read-out: Ratio IC50
[3] = Selectivity index, ratio of IC50 for rat L6 cells to IC50 for bloodstream forms of Trypanosoma brucei rhodesiense STIB 900; assay type: toxicity, cell-based; settings: read-out: Ratio IC50

Structure (SMILES)	IC50 (L6)	IC50 (Plasmodium falciparum)	IC50 [1]	selectivity ratio [2]	selectivity ratio [3]
CC(C)NC(=N)c1ccc(Nc2nc3cc(C(=N)NC(C)C)ccc3[nH]2)cc1	108 µM	0.164 µM	0.027 µM	660	4000
N=C(N)c1ccc(Nc2nc3cc(Cl)ccc3[nH]2)cc1	46.4 µM	0.877 µM	19.6 µM	53	2.4
N=C(N)c1ccc2[nH]c(Nc3ccc(Cl)c(Cl)c3)nc2c1	39.1 µM	0.138 µM	21.8 µM	280	1.8
N=C(N)c1ccc(Nc2nc3ccccc3[nH]2)cc1	123 µM	3.29 µM	15.8 µM	37	7.7
N=C(N)c1ccc2[nH]c(Nc3ccc(Cl)cc3)nc2c1	41.6 µM	0.688 µM	17 µM	60	2.4
Cc1cc2[nH]c(Nc3ccc(C(=N)N)cc3)nc2cc1Cl	23.2 µM	0.795 µM	20.7 µM	29	1.1
N=C(N)c1ccc(Nc2nc3cc(C(=N)N)ccc3[nH]2)cc1	105 µM	0.0675 µM	0.00466 µM	1560	22600
N=C(N)c1ccc(Nc2nc3cc(C(F)(F)F)ccc3[nH]2)cc1	41.4 µM	0.853 µM	20.9 µM	49	2
N=C(NC1CCCCC1)c1ccc(Nc2nc3cc(C(=N)NC4CCCCC4)ccc3[nH]2)cc1	63.7 µM	0.0459 µM	0.0051 µM	1390	12500
N=C(N)c1ccc2[nH]c(Nc3ccccc3)nc2c1	237 µM	5.46 µM	54.7 µM	43	4.3
CCC(C)NC(=N)c1ccc(Nc2nc3cc(C(=N)NC(C)CC)ccc3[nH]2)cc1 (stereo not given)	93.6 µM	0.294 µM	0.0455 µM	320	2060
CC(C)CNC(=N)c1ccc(Nc2nc3cc(C(=N)NCC(C)C)ccc3[nH]2)cc1	84.4 µM	0.0913 µM	0.0095 µM	925	8880
